{
  "source": "patent US20240398756A1",
  "about": "“DRUG FOR REDUCING BLOOD GLUCOSE AND/OR TREATING DIABETIC COMPLICATIONS” (SICHUAN UNIVERSITY, priority 2022, published 2024)",
  "key": {"[1]": {"test_system": "C57BL/KsJ db/db mice", "test": "Blood glucose in db/db type 2 diabetes mice (Embodiment 4)", "assay_type": "in vivo", "conditions": "gavage; for reduction of blood glucose contents: 1 month, nanoparticles 100 mg/kg once every 3 days, LA monomer 100 mg/kg and metformin 120 mg/kg once a day, relative to model-normal control difference", "experimental": "A total of 24 C57BL/KsJ db/db mice were randomly divided into 4 groups according to body weight and blood glucose, with 6 mice in each group. […] There were 6 littermate w/w male mice of the same week age as the solvent control group. […] After administration of a single dose, the blood glucose changes of mice were continuously monitored for 3 days. During the 1-month treatment cycle, the blood glucose changes of the mice were detected every 3 days. On the 30th day, 2 h after the end of administration, the blood glucose of mice was measured, and the percentage of blood glucose reduced by the drug was calculated based on the difference between the blood glucose of the model and the normal control group. The mice were killed by enucleation and bloodletting, serum samples were collected by centrifugation at room temperature, the serum insulin content was detected by mouse insulin ELISA detection kit, and the insulin resistance index was calculated, and the percentage of the drug to reduce the serum insulin content and insulin resistance index was calculated based on the difference between the model and the normal control group.\nThe results of the quantitative experiment were expressed as mean±variance (x±s). SPSS version19.0 Statistical Software (Chicago, IL, USA) was used to compare the differences between groups using one-way analysis of variance. When the difference was significant (P<0.05), the Turkey post hoc method was used for pairwise comparison, and when P<0.05, the difference was considered statistically significant."}, "[2]": {"test_system": "C57BL/KsJ db/db mice", "test": "Serum insulin content and insulin resistance index in db/db diabetic mice", "assay_type": "in vivo", "conditions": "gavage, end of 1 month treatment, nanoparticles 100 mg/kg every 3 days, LA monomer 100 mg/kg and metformin 120 mg/kg daily", "source_text": "8-week male C57BL/KsJ db/db mice, SPF grade, provided by Jiangsu GemPharmatech Co. Ltd., Changzhou Branch, certificate number: 202012449, with an initial weight of 44±2 g, underwent adaptive feeding for one week. A total of 24 C57BL/KsJ db/db mice were randomly divided into 4 groups according to body weight and blood glucose, with 6 mice in each group. […] There were 6 littermate w/w male mice of the same week age as the solvent control group. […] After administration of a single dose, the blood glucose changes of mice were continuously monitored for 3 days. During the 1-month treatment cycle, the blood glucose changes of the mice were detected every 3 days. […] The mice were killed by enucleation and bloodletting, serum samples were collected by centrifugation at room temperature, the serum insulin content was detected by mouse insulin ELISA detection kit, and the insulin resistance index was calculated, and the percentage of the drug to reduce the serum insulin content and insulin resistance index was calculated based on the difference between the model and the normal control group. The results of the quantitative experiment were expressed as mean±variance (x±s). SPSS version19.0 Statistical Software (Chicago, IL, USA) was used to compare the differences between groups using one-way analysis of variance. When the difference was significant (P<0.05), the Turkey post hoc method was used for pairwise comparison, and when P<0.05, the difference was considered statistically significant."}, "[3]": {"test_system": "C57BL/KsJ db/db mice", "test": "MDA content and SOD activity in kidney tissues", "assay_type": "in vivo", "conditions": "30 mg/kg i.p. once a day, 4 weeks", "experimental": "(§1) 10-week male C57BL/KsJ db/db mice, SPF grade, provided by Jiangsu GemPharmatech Co. Ltd., Changzhou Branch, certificate number: 202012449, with an initial weight of 44±2 g, underwent adaptive feeding for two weeks. […] There were 6 littermate w/w male mice of the same week age as the solvent control group. Different doses were given by intraperitoneal injection at 10 mL/kg volume once a day for four weeks, respectively, and equal volumes of normal saline were given by intraperitoneal injection in the control and model groups. During the treatment cycle, the blood glucose changes in mice were detected every three days, and the percentages of blood glucose reduced by the drugs were calculated based on the difference between the blood glucose of the model and the normal control group, so as to clarify the hypoglycemic effect of the drugs."}, "[4]": {"test_system": "C57BL/KsJ db/db mice", "test": "Kidney tissue pathology (HE, PAS, TEM) in diabetic nephropathy mice", "assay_type": "in vivo", "conditions": "30 mg/kg i.p. once a day, four weeks", "experimental": "as §1"}, "[5]": {"conditions": "intravenous injection, human body; cited from earlier work"}, "[6]": {"test_system": "C57BL/KsJ db/db mice", "test": "Blood glucose in db/db diabetic peripheral neuropathy mice (Embodiment 8)", "assay_type": "in vivo", "conditions": "50 mg/kg i.p. three times a week, 8 weeks", "experimental": "(§2) Eighteen 16-week male C57BL/KsJ db/db mice, SPF grade, provided by Jiangsu GemPharmatech Co. Ltd., Changzhou Branch. […] The littermate w/w male mice of the same age were selected as the control group. The heat pain threshold was measured in all mice before administration to determine DPN symptoms. […] The control group and the db/db model group were intraperitoneally injected with an equal volume of saline. During the treatment period, blood glucose changes in mice were monitored every three days to determine the hypoglycemic effect of the drug. At the end of the 8th week, the heat pain threshold was detected. Mice were sacrificed to detect related factors through detection kits."}, "[7]": {"test_system": "C57BL/KsJ db/db mice", "test": "Transcript levels of TNF-α, IL-1β and IL-6 genes in kidney tissues", "assay_type": "in vivo", "conditions": "30 mg/kg i.p. once a day, 4 weeks", "experimental": "as §1"}, "[8]": {"test_system": "C57BL/KsJ db/db mice", "test": "TNF-α, IL-1β and IL-6 contents in sciatic nerve", "assay_type": "in vivo", "conditions": "50 mg/kg i.p. three times a week, 8 weeks", "experimental": "as §2\n(§3) At the end of the experiment, mice were sacrificed and sciatic nerve cells were isolated. In order to determine the contents of MDA, GSH, SOD, TNF-α, IL-6 and IL-1β in the sciatic nerve, the sciatic nerve was first cut into fragments (100 mg: 1800 μL) with small scissors in normal saline and homogenized with Beed Ruptor 24 Elite. Then, the homogenate was centrifuged at 4° C. and 3500 rpm for 15 min, and the supernatant was collected for use. Then, commercial kits were used to determine the activity of SOD and the contents of MDA, GSH, TNF-α, IL-6 and IL-1β in sciatic nerve homogenate."}, "[9]": {"test_system": "C57BL/KsJ db/db mice", "test": "Serum CRE, BUN and UACR in diabetic nephropathy mice", "assay_type": "in vivo", "conditions": "30 mg/kg i.p. once a day, four weeks", "experimental": "as §1"}, "[10]": {"test_system": "C57BL/KsJ db/db mice", "test": "Blood glucose in db/db diabetic nephropathy mice (Embodiment 6)", "assay_type": "in vivo", "conditions": "30 mg/kg intraperitoneal once a day, four weeks", "experimental": "as §1, with “drugs. […] The results of the quantitative experiment were expressed as mean±variance (x±s). SPSS version19.0 Statistical Software (Chicago, IL, USA) was used to compare the differences between groups using one-way analysis of variance. When the difference was significant (P<0.05), the Turkey post hoc method was used for pairwise comparison, and when P<0.05, the difference was considered statistically significant.” for “drugs.”"}, "[11]": {"test_system": "C57BL/KsJ db/db mice", "test": "Na+-K+-ATPase activity in red blood cells and sciatic nerve", "assay_type": "in vivo", "conditions": "50 mg/kg i.p. three times a week, 8 weeks", "experimental": "as §2\nAfter 8 weeks treatment, all mice were sacrificed and the sciatic nerve was isolated. In order to determine the activity of Na^+—K^+-ATPase in red blood cells and sciatic nerve of mice, 10 μL whole blood was collected and added into 240 μL distilled water for mixing, and the activity of Na^+—K^+-ATPase was determined immediately. The sciatic nerve tissue of mice was collected. First, the sciatic nerve was cut into fragments (100 mg: 1800 μL) with small scissors in normal saline and homogenized with Beed Ruptor 24 Elite. Then, the homogenate was centrifuged at 4° C. and 3500 rpm for 15 min, and the supernatant was collected for use."}, "[12]": {"test_system": "C57BL/KsJ db/db mice", "test": "SOD activity and MDA, GSH contents in sciatic nerve", "assay_type": "in vivo", "conditions": "50 mg/kg i.p. three times a week, 8 weeks", "experimental": "as §2, §3"}},
  "note": "Where a name gives a salt, the structure may show the parent alone.",
  "data": [
    {"smiles": "CN(C)C(=N)N=C(N)N", "note": "[metformin, metformin hydrochloride]", "values": [
      {"measurement": "reduction of blood glucose contents", "setting": "[1]", "result": 50.28, "unit": "%"},
      {"measurement": "duration of hypoglycemic effect after a single dose", "setting": "[1]; single dose, nanoparticles 100 mg/kg, metformin 120 mg/kg", "result": "≤ 24", "unit": "h"},
      {"measurement": "decrease of insulin resistance index", "setting": "[2]", "result": 53.68, "unit": "%"},
      {"measurement": "decrease of serum insulin content", "setting": "[2]", "result": 34.69, "unit": "%"}
    ]},
    {"smiles": "O=C(O)CCCCC1CCSS1", "note": "(centres unmarked) [LA monomer, lipoic acid]", "values": [
      {"measurement": "increase of SOD activity in kidney tissues", "setting": "[3]", "result": 55, "unit": "%"},
      {"measurement": "reduction of MDA content in kidney tissues", "setting": "[3]", "result": 9.8, "unit": "%"},
      {"measurement": "decrease of basement membrane thickness vs db/db model group", "setting": "[4]", "result": 6.57, "unit": "%"},
      {"measurement": "increase of number of foot processes vs db/db model group", "setting": "[4]", "result": 10.14, "unit": "%"},
      {"measurement": "shrinkage of glomeruli vs db/db model group", "setting": "[4]", "result": 25.50, "unit": "%"},
      {"measurement": "fraction passing through the glomerulus into the renal tubules and excreted in the urine", "setting": "[5]", "result": "80-90%"},
      {"measurement": "hypoglycemic effect (in words)", "setting": "[6]", "result": "no hypoglycemic effect"},
      {"measurement": "reduction of IL-1β transcript level in kidney", "setting": "[7]", "result": 18.18, "unit": "%"},
      {"measurement": "reduction of IL-6 transcript level in kidney", "setting": "[7]", "result": 23.33, "unit": "%"},
      {"measurement": "reduction of TNF-α transcript level in kidney", "setting": "[7]", "result": 22.5, "unit": "%"},
      {"measurement": "decrease of IL-1β level in sciatic nerve tissue vs db/db mice", "setting": "[8]", "result": 27.46, "unit": "%"},
      {"measurement": "decrease of IL-6 level in sciatic nerve tissue vs db/db mice", "setting": "[8]", "result": 38.42, "unit": "%"},
      {"measurement": "decrease of TNF-α level in sciatic nerve tissue vs db/db mice", "setting": "[8]", "result": 34.42, "unit": "%"},
      {"measurement": "reduction of blood glucose contents", "setting": "[1]", "result": "no hypoglycemic effect"},
      {"measurement": "blood glucose levels versus model group after a single dose", "setting": "[1]; single dose 100 mg/kg, monitored 3 days", "result": "no significant difference"},
      {"measurement": "decrease of BUN content vs db/db model group", "setting": "[9]", "result": 25.45, "unit": "%"},
      {"measurement": "decrease of UACR level vs db/db model group", "setting": "[9]", "result": 24.75, "unit": "%"},
      {"measurement": "decrease of serum CRE vs db/db model group", "setting": "[9]", "result": 21.05, "unit": "%"},
      {"measurement": "reduction of blood glucose content", "setting": "[10]", "result": "no hypoglycemic effect"},
      {"measurement": "increase of Na+-K+-ATPase activity in sciatic nerve vs db/db mice", "setting": "[11]", "result": 120, "unit": "%"},
      {"measurement": "increase of Na+-K+-ATPase activity of red blood cells vs db/db mice", "setting": "[11]", "result": 137, "unit": "%"},
      {"measurement": "decrease of serum insulin content", "setting": "[2]", "result": "no significant difference"},
      {"measurement": "decrease of MDA content in sciatic nerve", "setting": "[12]", "result": 30.79, "unit": "%"},
      {"measurement": "increase of GSH content in sciatic nerve", "setting": "[12]", "result": 10.79},
      {"measurement": "increase of SOD activity in sciatic nerve", "setting": "[12]", "result": 15.76, "unit": "%"}
    ]}
  ]
}
